Assay results published in patent US8993595B2, “Macrocyclic serine protease inhibitors” (priority 2009, dated 2015).

Experiments:
[1] = clinical; details: human, in vivo; for Cmax / Tmax: 400 mg per day; for half-life: T1/2, 400 mg per day
[2] = system: 1b replicon; test: HCV replicon luciferase assay, genotype 1b; format: cell-based
Description: Compound 52 was tested against genotypes 1a, 1b, and 2a in an HCV replicon assay as described in Example 2. Replicon cells (genotype 1a or 1b) were seeded onto 96-well plates, cultured for three days in the presence of the compound, and subject to a luciferase assay.
Drug solutions were made up freshly in Huh-7 media as 2× stocks. Ten additional 5-fold dilutions were prepared from these stocks in DMEM without G418. […] Cells were then incubated at 37° C./5% CO2. […] For this, media was removed from the plates via gentle tapping. Fifty microliters of ONE-glo luciferase assay reagent was added to each well. […] The EC50 values were calculated from dose response curves from the resulting best-fit equations determined by Microsoft Excel and XLfit 4.1 software.

[3] = system: H1a-luc cell line (genotype 1a replicon, unselected); test: Extent of resistance after selection, H1a-luc; format: cell-based, HCV; details: selecting conc. 0 nM
Description: (§1) Replicon cells (genotype 1a or 1b) were treated with various concentrations of compound 52 in the presence of G418. Treatment-emergent genotypic changes were identified by population sequencing of NS3 (both protease and helicase regions). The activity of compound 52 and other compounds was evaluated by NS5A western blot after selection or luciferase assay during and after selection.

[4] = system: genotype 1b replicon cells; test: Selection of drug-resistant genotype 1b replicon cell lines; format: cell-based, HCV; details: all eight selected genotype 1b cell lines
Description: as §1
(§2) Eight drug-resistance replicon cell lines were created by long-term culture of genotype 1b replicon cells with 10 or 25 nM of compound 52. NS3 (AAs 1-631) was sequenced at each passage.

[5] = system: replicon bearing NS5B Mutation Y448H
Description: (§3) The activity of compound 52 was evaluated against replicons bearing single protease inhibitor-resistance mutations as compared to its activity against the wild-type replicon. Mutations were introduced into a genotype 1b luciferase-replicon by site-directed mutagenesis. Compound activity was measured in cells transiently transfected with in vitro transcribed wild-type or mutant luciferase-replicon RNA by luciferase assay after 4-day treatment. Replication capacity was determined in untreated transfected cells by comparing the luciferase activity at 4 hrs and 4 days post-transfection.
(§4) The activity of compound 52 was also tested against replicons bearing a single polymerase inhibitor-resistance mutation. Each mutation confers resistance to a known polymerase inhibitor as reported in the literature.

[6] = system: replicon bearing NS5B Mutation C445Y
Description: as §3, §4

[7] = system: replicon bearing NS5B Mutation M414T
Description: as §3, §4

[8] = system: replicon bearing NS5B Mutation C316Y
Description: as §3, §4

[9] = system: replicon bearing NS5B Mutation M423T
Description: as §3, §4

[10] = system: replicon bearing NS5B Mutation S282T
Description: as §3, §4

[11] = system: replicon bearing NS5B Mutation C445F
Description: as §3, §4

[12] = Pharmacokinetics in human volunteers, single dose cohorts
[13] = system: ZlucB cell line (genotype 1b replicon selected with 25 nM compound 52, D168V); test: Extent of resistance after selection, luciferase assay, ZlucB; format: cell-based, HCV; details: selecting conc. 25 nM, EC50 resistant / EC50 wild-type
Description: as §1, §2

[14] = system: genotype 1b luciferase-replicon NS3 D168A
Description: as §3

[15] = system: genotype 1b luciferase-replicon NS3 R155Q
Description: as §3

[16] = system: genotype 1b luciferase-replicon NS3 A156T
Description: as §3

[17] = system: genotype 1b luciferase-replicon NS3 D168V
Description: as §3

[18] = system: genotype 1b luciferase-replicon NS3 T54A
Description: as §3

[19] = system: genotype 1b luciferase-replicon NS3 D168Y
Description: as §3

[20] = system: genotype 1b luciferase-replicon NS3 Q80R
Description: as §3

[21] = system: genotype 1b luciferase-replicon NS3 D168E
Description: as §3

[22] = system: genotype 1b luciferase-replicon NS3 A156S
Description: as §3

[23] = system: genotype 1b luciferase-replicon NS3 R155K
Description: as §3

[24] = mouse plasma
[25] = target: T1, human CYP450 2D6 (Homo sapiens, UniProt P10635); test: CYP450 inhibition assay, 2D6; format: in vitro ADME
T1 construct: purchased BD Bioscience
T1 sequence (P10635 whole entry): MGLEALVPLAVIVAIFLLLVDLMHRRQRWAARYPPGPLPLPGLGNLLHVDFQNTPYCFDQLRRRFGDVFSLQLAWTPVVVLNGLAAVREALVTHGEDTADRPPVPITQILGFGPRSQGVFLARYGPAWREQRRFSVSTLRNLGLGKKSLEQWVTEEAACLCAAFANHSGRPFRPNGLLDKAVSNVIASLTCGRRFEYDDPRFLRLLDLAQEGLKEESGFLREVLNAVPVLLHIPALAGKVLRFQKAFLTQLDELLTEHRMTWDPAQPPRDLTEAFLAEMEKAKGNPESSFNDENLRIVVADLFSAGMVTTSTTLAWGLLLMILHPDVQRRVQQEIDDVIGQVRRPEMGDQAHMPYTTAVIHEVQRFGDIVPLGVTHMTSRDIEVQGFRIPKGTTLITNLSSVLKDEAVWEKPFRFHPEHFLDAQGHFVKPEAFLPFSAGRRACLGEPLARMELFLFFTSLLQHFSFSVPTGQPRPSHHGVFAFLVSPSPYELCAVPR
Description: (§5) Compound 52 was incubated with human CYP450 cDNA-expressed isoenzymes according to the protocol (BD Bioscience). For CYP2C9, a luminogenic substrate was used with the P450-Glo™ kit. In addition, the effect of the compound on CYP2C9-mediated diclofenac metabolism was measured by LC-UV. The potential inhibitory effect of the compound on human UGT1A1 was examined using human liver microsomes and bilirubin as substrate. The metabolites (mono- and di-glucuronidated bilirubin) were measured by LC-UV.

[26] = target: T2, human CYP450 2B6 (Homo sapiens, UniProt P20813); test: CYP450 inhibition assay, 2B6; format: in vitro ADME
T2 construct: purchased BD Bioscience
T2 sequence (P20813 whole entry): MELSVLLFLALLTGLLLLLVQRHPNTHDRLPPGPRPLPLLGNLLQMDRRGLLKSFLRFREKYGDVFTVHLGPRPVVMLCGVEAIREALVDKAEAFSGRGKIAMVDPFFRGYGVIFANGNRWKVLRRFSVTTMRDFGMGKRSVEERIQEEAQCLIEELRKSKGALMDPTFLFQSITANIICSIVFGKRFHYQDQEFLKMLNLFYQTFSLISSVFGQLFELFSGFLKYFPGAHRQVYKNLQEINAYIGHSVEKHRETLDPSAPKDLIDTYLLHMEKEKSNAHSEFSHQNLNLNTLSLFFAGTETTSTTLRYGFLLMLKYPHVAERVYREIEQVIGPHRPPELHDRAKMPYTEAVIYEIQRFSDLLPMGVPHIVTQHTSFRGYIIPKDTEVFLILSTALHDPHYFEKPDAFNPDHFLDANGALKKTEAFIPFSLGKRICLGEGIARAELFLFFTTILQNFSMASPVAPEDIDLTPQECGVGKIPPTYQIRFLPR
Description: as §5

Compound COc1ccc2c(O[C@H]3CCN4C(=O)N(C)CCCC/C=C\[C@@H]5C[C@@]5(C(=O)NS(=O)(=O)C5(C)CC5)NC(=O)[C@@H]4C3)cc(-c3nc(C(F)(F)F)cs3)nc2c1C [Compound 52, 1-methyl-cyclopropanesulfonic acid{(Z)-(1S,4R,6S,18S)-18-[7-methoxy-8-methyl-2-(4-trifluoromethyl-thiazol-2-yl)-quinolin-4-yloxy]-13-methyl-2,14-dioxo-3,13,15-triaza-tricyclo[13.4.0.0*4,6*]nonadec-7-ene-4-carbonyl}amide] has a Cmax ([1]; PK Day 1) of 1150 ± 381 ng/mL, a Cmax ([1]; PK Day 3) of 1370 ± 345 ng/mL and a half-life ([1]; PK Day 1) of 12 ± 2 h. The half-life ([1]; PK Day 3) was 31 ± 8 h, the Tmax ([1]; PK Day 1) was 3 h and the Tmax ([1]; PK Day 3) was 3.5 h. The “Selectivity Index” value [2] was 50,400, the EC50 ([2]; Hepatitis C virus, 72 h, three days, luciferase assay) was 0.0005 ± 0.0001 µM and the Fold-Change [3] was 1. The “fold-change values (resistance)” value [4] was “no less than 250”, the Fold-Change [5] was 1.7 ± 0.4 and the Fold-Change [6] was 0.9 ± 0.07. The Fold-Change [7] was 1.6 ± 0.5, the Fold-Change [8] was 1.7 ± 0.6 and the Fold-Change [9] was 0.9 ± 0.08. The Fold-Change [10] was 1.4 ± 0.6, the Fold-Change [11] was 0.9 ± 0.07 and the “total and trough exposure, HCV-infected patients compared to healthy volunteers” value ([12]; 2 HCV-infected patients, comparable Cmax) was 2 fold. The “enhancement of overall plasma exposure by food” value ([12]; food compared to fasting state) was “approximately 2 fold”, the C24 hr ([12]; single dose 100 mg, human volunteers) was 19 ± 9 ng/mL and the C24 hr ([12]; single dose 200 mg, HCV patients, N = 2) was 131 ng/mL. The C24 hr ([12]; single dose 200 mg, human volunteers) was 53 ± 26 ng/mL, the C24 hr ([12]; single dose 400 mg Fasted, human volunteers) was 54 ± 28 ng/mL and the C24 hr ([12]; single dose 400 mg, human volunteers) was 89 ± 16 ng/mL. For the same compound, the Fold-Change [13] was 1037 ± 144, the Fold-Change [14] was 575 ± 210 and the Fold-Change [15] was 0.6 ± 0.09. It also gave a Fold-Change [16] of 27.1 ± 9.5, a Fold-Change [17] of 4587 ± 1003 and a Fold-Change [18] of 1.4 ± 0.2. For the same compound, the Fold-Change [19] was 1107 ± 513, the Fold-Change [20] was 5.7 ± 0.9 and the Fold-Change [21] was 41.4 ± 17.8. The Fold-Change [22] was 0.5 ± 0.1, the Fold-Change [23] was 9.0 ± 1.7 and the “protein bound in plasma” value [24] was 99.2%. For the same compound, the IC50 [25] was ≥ 10 µM and the IC50 [26] was ≥ 10 µM.
